Results: the NIST ThermoML archive (doi:10.1021/je9005757)

Assay: cn = amount concentration of the nth substance listed, in mol/dm3
Settings: 101 kPa, Liquid; for molar conductivity: Shedlovsky-type conductance cell; for binary diffusion coefficient: Open capillary

CN[C@H](C)[C@@H](O)c1ccccc1.[Cl-].[H+] [D-α-(1-methylaminoethyl)benzyl alcohol] + O
Settings | binary diffusion coefficient, 298.15 K [m2/s] | binary diffusion coefficient, 310.15 K [m2/s] | molar conductivity, 283.15 K [S·m2/mol] | molar conductivity, 293.15 K [S·m2/mol] | molar conductivity, 298.15 K [S·m2/mol] | molar conductivity, 303.15 K [S·m2/mol] | molar conductivity, 310.15 K [S·m2/mol] | molar conductivity, 323.15 K [S·m2/mol]
c1 = 0.001 | 1.13e-09 | 1.57e-09 | – | – | – | – | – | –
c1 = 0.001841 | – | – | 0.006545 | 0.00844 | 0.009366 | 0.01041 | 0.01201 | 0.01524
c1 = 0.00244 | – | – | 0.006422 | 0.008268 | 0.009179 | 0.0102 | 0.01177 | 0.01489
c1 = 0.0025 | 1.12e-09 | 1.53e-09 | – | – | – | – | – | –
c1 = 0.003031 | – | – | 0.006316 | 0.008109 | 0.009034 | 0.01001 | 0.01159 | 0.01469
c1 = 0.003615 | – | – | 0.006204 | 0.007973 | 0.008901 | 0.009837 | 0.01141 | 0.01444
c1 = 0.004193 | – | – | 0.006101 | 0.007849 | 0.008778 | 0.009703 | 0.01122 | 0.01422
c1 = 0.004763 | – | – | 0.006018 | 0.007749 | 0.008675 | 0.009566 | 0.01107 | 0.01401
c1 = 0.005 | 1.1e-09 | 1.48e-09 | – | – | – | – | – | –
c1 = 0.005327 | – | – | 0.005942 | 0.007661 | 0.008577 | 0.009439 | 0.01094 | 0.01384
c1 = 0.005884 | – | – | 0.005866 | 0.00757 | 0.008481 | 0.00932 | 0.01079 | 0.01368
c1 = 0.006434 | – | – | 0.005795 | 0.007486 | 0.00839 | 0.009208 | 0.0107 | 0.01352
c1 = 0.006978 | – | – | 0.005725 | 0.007395 | 0.008298 | 0.009099 | 0.01057 | 0.01337
c1 = 0.007516 | – | – | 0.005655 | 0.00731 | 0.008205 | 0.008991 | 0.01046 | 0.01322
c1 = 0.008 | 1.05e-09 | 1.42e-09 | – | – | – | – | – | –
c1 = 0.008048 | – | – | 0.005593 | 0.007232 | 0.00812 | 0.008893 | 0.01036 | 0.01308
c1 = 0.008573 | – | – | 0.005534 | 0.007159 | 0.00804 | 0.0088 | 0.01027 | 0.01295
c1 = 0.009093 | – | – | 0.005477 | 0.007089 | 0.007965 | 0.008713 | 0.01018 | 0.01283
c1 = 0.009607 | – | – | 0.005427 | 0.007027 | 0.007896 | 0.008633 | 0.01009 | 0.01271
c1 = 0.01 | 1.01e-09 | 1.38e-09 | – | – | – | – | – | –
c1 = 0.01012 | – | – | 0.005377 | 0.006966 | 0.007829 | 0.008556 | 0.01001 | 0.0126
c1 = 0.01062 | – | – | 0.005329 | 0.006904 | 0.007761 | 0.008478 | 0.009923 | 0.01249
c1 = 0.01111 | – | – | 0.005284 | 0.006844 | 0.007695 | 0.008404 | 0.009841 | 0.01238
c1 = 0.01161 | – | – | 0.005242 | 0.006785 | 0.00763 | 0.008329 | 0.00976 | 0.01228
c1 = 0.01209 | – | – | 0.005196 | 0.006729 | 0.007567 | 0.008257 | 0.009679 | 0.01217
c1 = 0.01257 | – | – | 0.005156 | 0.006675 | 0.007501 | 0.00819 | 0.009603 | 0.01208
c1 = 0.01305 | – | – | 0.005118 | 0.006626 | 0.00745 | 0.008126 | 0.009532 | 0.01198
c1 = 0.01352 | – | – | 0.005078 | 0.006576 | 0.007395 | 0.008064 | 0.009461 | 0.01189
c1 = 0.01398 | – | – | 0.005038 | 0.006528 | 0.007343 | 0.008005 | 0.009394 | 0.01181
c1 = 0.01444 | – | – | 0.005003 | 0.006483 | 0.007291 | 0.007946 | 0.009328 | 0.01172
c1 = 0.0149 | – | – | 0.004966 | 0.006437 | 0.007239 | 0.007888 | 0.009261 | 0.01164
c1 = 0.01535 | – | – | 0.004929 | 0.00639 | 0.007188 | 0.007831 | 0.009196 | 0.01155
c1 = 0.01579 | – | – | 0.004894 | 0.006343 | 0.007138 | 0.007776 | 0.009132 | 0.01147
c1 = 0.01623 | – | – | 0.004861 | 0.006302 | 0.00709 | 0.007722 | 0.009069 | 0.01139
c1 = 0.01667 | – | – | 0.004832 | 0.006262 | 0.007045 | 0.007671 | 0.00901 | 0.01132
